{"source": "patent US8124032B2", "about": "“Microfluidic device and method of using same” (priority 2004, dated 2012)", "system": "single yeast cell (intracellular carboxylesterase, efflux process)", "test": "Single-cell FDA metabolism (influx/hydrolysis/efflux), curve fitting to enzymatic model", "format": "cell-based, Sacchomyces cereviase", "description": "In one of the embodiments of the invention, to study a model of a yeast metabolic process using the microfluidic device of the invention, the inventors selected a cell-permeable fluorogenic substrate, fluorescein diacetate (FDA), which is normally used to determine cell viability^42. After influx of FDA into a yeast cell, the intracellular enzyme carboxylesterase^43 hydrolyzes FDA to fluorescein, which will then be excreted from the cell (through efflux).\nTo examine the cells in an embodiment of the microfluidic device, the device was placed on the translation stage of an inverted microscope and simultaneous optical observation and fluorescent measurement were carried out. To carry out fluorescent intensity calibration in the microfluidic device, polystyrene beads (6 μm diameter, InSpeck™ Green, Molecular Probes) were used. Three-dimensional liquid flow control was accomplished by either electric or fluid potential.\nWith electric potential control, only low-conducting liquids, such as G7, H4 could be delivered to the cells (cell 3, 4, 5). The two buffers were G7 (28.5 mM HEPES, 256 mM D-glucose, pH=7.3) and H4 (285 mM HEPES, pH=4.3). 12 μM FDA was used, where appropriate. With fluid potential (<1 mm) control, highly conducting liquids such as YPD, NaCl, KCl, EDTA could also be used.\nFIG. 16I depicts the schematic diagram of a yeast cell with a daughter bud, showing the relationship between the concentrations of extracellular FDA (A), intracellular FDA (B) and fluorescein (C) as a function of time (t). The kinetic model can be described by several equations. Equation (1) is the material balance of FDA (B) in the cell. Equation (2) is the material balance of fluorescein (C) in the cell. Equations (1) and (2) were derived from first principles as discussed below.\n[formula] The notations are A: extracellular FDA (μM); B: intracellular FDA (μM); C: intracellular fluorescein (μM); S: cell surface area (μm^2) and V: cell volume (μm^3), as calculated from the diameter (μm) of the cell (D1) and its bud (D2); kb: transport coefficient (μm s^−1); Vm (μM s^−1) and Km (μM): Michaelis-Menten kinetic parameters for the carboxylesterase; Ve (μM μm s^−1) and Ke (μM): Michaelis-Menten kinetic parameters for the efflux process.\n[formula] Equation (3) represents the increasing rate of the carboxylesterase activity as indicated by the Michaelis-Menten parameter Vm, where k is the rate constant (μM s^−2). Derivation for Equation (1): Material Balance of FDA in the Cell\nHere, T0, T1 and T2 are the time at which influx, hydrolysis and efflux start, respectively.\nIn the self-control mode, when influx is not allowed, kb=0. […] During hydrolysis (T1 to T2), there is no influx and efflux, i.e. kb=0, Vm>0, and Ve=0. Finally, during efflux (after T2), there is no influx and hydrolysis, i.e. kb=0, Vm=0, and Ve>0. In the lost-control mode, kb>0, Vm>0, and Ve>0. In the “death” mode, kb=0, Vm=0, and Ve=0. In this case, the cell appears dead when there is no change in the concentration of cellular fluorescein.\nCurve-fitting experiments were also carried out for two other single yeast cells under various stimuli, see FIG. 17.", "key": {"[1]": {"settings": "cell 3, T0 2140 s, self-control mode"}, "[2]": {"settings": "cell 4, T0 2560 s, self-control mode"}, "[3]": {"settings": "cell 4, T0 4950 s, self-control mode"}, "[4]": {"settings": "cell 4, T0 6590 s, self-control mode"}, "[5]": {"settings": "cell 4, T0 8627 s, lost-control mode"}, "[6]": {"settings": "cell 5, T0 208 s, self-control mode"}, "[7]": {"settings": "cell 5, T0 1030 s, self-control mode"}, "[8]": {"settings": "cell 5, T0 2026 s, self-control mode"}, "[9]": {"settings": "cell 5, T0 3300 s, self-control mode"}, "[10]": {"settings": "cell 5, T0 5600 s, lost-control mode"}, "[11]": {"settings": "cell ‡ (another single yeast cell similar to cell 3), T0 2200 s, self-control mode"}}, "data": [{"smiles": "CC(=O)Oc1ccc2c(c1)Oc1cc(OC(C)=O)ccc1C21OC(=O)c2ccccc21", "note": "[FDA, fluorescein diacetate]", "values": [{"measurement": "Vm0 (initial value of Vm, carboxylesterase)", "setting": "[1]", "value": 0.0012, "unit": "µM/s"}, {"measurement": "k (rate constant of increase of Vm)", "setting": "[1]", "value": "4 10^−6 μM s^−2"}, {"measurement": "Vm0 (initial value of Vm, carboxylesterase)", "setting": "[2]", "value": 0.002, "unit": "µM/s"}, {"measurement": "k (rate constant of increase of Vm)", "setting": "[2]", "value": "25 10^−6 μM s^−2"}, {"measurement": "Vm0 (initial value of Vm, carboxylesterase)", "setting": "[3]", "value": 0.01, "unit": "µM/s"}, {"measurement": "k (rate constant of increase of Vm)", "setting": "[3]", "value": "25 10^−6 μM s^−2"}, {"measurement": "Vm0 (initial value of Vm, carboxylesterase)", "setting": "[4]", "value": 0.04, "unit": "µM/s"}, {"measurement": "k (rate constant of increase of Vm)", "setting": "[4]", "value": "0 10^−6 μM s^−2"}, {"measurement": "Vm0 (initial value of Vm, carboxylesterase)", "setting": "[5]", "value": 0.009, "unit": "µM/s"}, {"measurement": "k (rate constant of increase of Vm)", "setting": "[5]", "value": "0 10^−6 μM s^−2"}, {"measurement": "Vm0 (initial value of Vm, carboxylesterase)", "setting": "[6]", "value": 0.02, "unit": "µM/s"}, {"measurement": "k (rate constant of increase of Vm)", "setting": "[6]", "value": "0 10^−6 μM s^−2"}, {"measurement": "Vm0 (initial value of Vm, carboxylesterase)", "setting": "[7]", "value": 0.005, "unit": "µM/s"}, {"measurement": "k (rate constant of increase of Vm)", "setting": "[7]", "value": "0 10^−6 μM s^−2"}, {"measurement": "Vm0 (initial value of Vm, carboxylesterase)", "setting": "[8]", "value": 0.0018, "unit": "µM/s"}, {"measurement": "k (rate constant of increase of Vm)", "setting": "[8]", "value": "2 10^−6 μM s^−2"}, {"measurement": "Vm0 (initial value of Vm, carboxylesterase)", "setting": "[9]", "value": 0.004, "unit": "µM/s"}, {"measurement": "k (rate constant of increase of Vm)", "setting": "[9]", "value": "15 10^−6 μM s^−2"}, {"measurement": "Vm0 (initial value of Vm, carboxylesterase)", "setting": "[10]", "value": 0.015, "unit": "µM/s"}, {"measurement": "k (rate constant of increase of Vm)", "setting": "[10]", "value": "0 10^−6 μM s^−2"}, {"measurement": "Vm0 (initial value of Vm, carboxylesterase)", "setting": "[11]", "value": 0.007, "unit": "µM/s"}, {"measurement": "k (rate constant of increase of Vm)", "setting": "[11]", "value": "4 10^−6 μM s^−2"}]}]}
